Experimental data reported in article PMC10053286, “The Importance of Epigallocatechin as a Scaffold for Drug Development against Flaviviruses” (Pharmaceutics, 2023).
Where two headings read alike, the source gives them in different places.

Tests used:
ZIKV NS2B/NS3pro [1] = molecular target: T1, ZIKV NS2B/NS3pro (Zika virus, UniProt A0A024B7W1); settings: Li and collaborators; cited from earlier work
ZIKV NS2B/NS3pro [2] = molecular target: T1, ZIKV NS2B/NS3pro; experiment: Surface plasmon resonance dissociation constant; type: binding
WNV NS2B/NS3pro [3] = molecular target: T2, WNV NS2B/NS3pro (West Nile virus, UniProt P06935); experiment: biochemical; type: biochemical
T2 sequence (P06935 1420-1465): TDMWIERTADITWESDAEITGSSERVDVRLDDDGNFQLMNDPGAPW
T2 sequence (P06935 1502-1671): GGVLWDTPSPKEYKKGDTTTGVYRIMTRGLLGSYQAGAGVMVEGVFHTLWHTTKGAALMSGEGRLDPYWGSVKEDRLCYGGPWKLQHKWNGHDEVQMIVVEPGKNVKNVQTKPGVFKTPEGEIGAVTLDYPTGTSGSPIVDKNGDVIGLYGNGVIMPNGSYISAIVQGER

ZIKV NS2B/NS3pro [4] = molecular target: T1, ZIKV NS2B/NS3pro; experiment: biochemical
ZIKV NS2B/NS3pro [5] = molecular target: T1, ZIKV NS2B/NS3pro; type: binding
DENV2 NS2B/NS3pro [6] = molecular target: T3, DENV2 NS2B/NS3pro (Dengue virus type 2, UniProt P14340); experiment: biochemical
T3 sequence (P14340 1394-1440 limits assumed): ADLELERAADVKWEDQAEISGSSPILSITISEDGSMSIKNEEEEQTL
T3 sequence (P14340 1476-1660 limits assumed): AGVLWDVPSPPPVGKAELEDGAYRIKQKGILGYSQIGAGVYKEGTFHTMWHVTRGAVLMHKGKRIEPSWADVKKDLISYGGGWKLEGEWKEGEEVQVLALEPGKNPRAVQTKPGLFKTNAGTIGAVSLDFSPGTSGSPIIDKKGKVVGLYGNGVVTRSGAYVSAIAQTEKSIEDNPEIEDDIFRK

WNV NS2B/NS3pro [7] = molecular target: T2, WNV NS2B/NS3pro; experiment: Surface plasmon resonance dissociation constant; type: binding
YFV NS2B/NS3pro [8] = molecular target: T4, YFV NS2B/NS3pro (Yellow fever virus, UniProt Q1X881); experiment: biochemical
T4 sequence (Q1X881 1402-1449 limits assumed): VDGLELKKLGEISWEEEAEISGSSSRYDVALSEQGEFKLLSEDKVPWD
T4 sequence (Q1X881 1491-1660 limits assumed): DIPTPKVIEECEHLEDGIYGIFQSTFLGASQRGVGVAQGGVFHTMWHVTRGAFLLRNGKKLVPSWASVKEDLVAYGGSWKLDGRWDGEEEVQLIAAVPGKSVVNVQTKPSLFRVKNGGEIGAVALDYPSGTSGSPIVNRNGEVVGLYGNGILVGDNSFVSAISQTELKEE

DENV2 NS2B/NS3pro [9] = molecular target: T3, DENV2 NS2B/NS3pro; experiment: Surface plasmon resonance dissociation constant; type: binding
DENV2 NS2B/NS3pro [10] = molecular target: T3, DENV2 NS2B/NS3pro; type: binding
YFV NS2B/NS3pro [11] = molecular target: T4, YFV NS2B/NS3pro; experiment: biochemical; type: binding
YFV NS2B/NS3pro [12] = molecular target: T4, YFV NS2B/NS3pro; type: binding

T1 sequence (A0A024B7W1 1421-1467): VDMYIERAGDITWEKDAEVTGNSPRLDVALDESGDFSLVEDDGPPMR
T1 sequence (A0A024B7W1 1503-1672): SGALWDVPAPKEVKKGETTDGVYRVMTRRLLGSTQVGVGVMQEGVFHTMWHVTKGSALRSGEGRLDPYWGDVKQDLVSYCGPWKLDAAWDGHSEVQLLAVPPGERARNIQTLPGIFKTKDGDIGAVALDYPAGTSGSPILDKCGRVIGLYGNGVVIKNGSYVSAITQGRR

SMILES: O=C(O[C@@H]1Cc2c(O)cc(O)cc2O[C@@H]1c1ccc(O)c(O)c1)c1cc(O)c(O)c(O)c1 [ECG, epicatechin gallate]
- IC50 (ZIKV NS2B/NS3pro [1]): 89 µM

SMILES: CC(=O)Oc1cc(OC(C)=O)c2c(c1)O[C@H](c1cc(OC(C)=O)c(OC(C)=O)c(OC(C)=O)c1)[C@H](OC(=O)c1cc(OC(C)=O)c(OC(C)=O)c(OC(C)=O)c1)C2 [AcEGCG, EGCG octaacetate]
- Kd (ZIKV NS2B/NS3pro [2]): 4.8 µM
- IC50 (WNV NS2B/NS3pro [3]): 83.4 ± 10.4 µM
- Inhibition Mode (WNV NS2B/NS3pro [3]): Noncompetitive
- IC50 (ZIKV NS2B/NS3pro [4]): 102 ± 2.6 µM
- Inhibition Mode (ZIKV NS2B/NS3pro [4]): Noncompetitive
- Trp emission band after titration of the molecule (excitation shift) (ZIKV NS2B/NS3pro [5]): 360 nm
- IC50 (DENV2 NS2B/NS3pro [6]): 39.8 ± 2.5 µM
- Inhibition Mode (DENV2 NS2B/NS3pro [6]): Noncompetitive
- Kd (WNV NS2B/NS3pro [7]): 0.98 µM
- IC50 (YFV NS2B/NS3pro [8]): 39.1 ± 2.2 µM
- Inhibition Mode (YFV NS2B/NS3pro [8]): Noncompetitive
- Kd (DENV2 NS2B/NS3pro [9]): 2.4 µM
- Trp emission band after titration of the molecule (excitation shift) (DENV2 NS2B/NS3pro [10]): 360 nm
- Kd (YFV NS2B/NS3pro [11]): 0.47 µM
- Trp emission band after titration of the molecule (excitation shift) (YFV NS2B/NS3pro [12]): 360 nm

SMILES: Oc1cc(O)c2c(c1)O[C@H](c1cc(O)c(O)c(O)c1)[C@H](O)C2 [EGC, epigallocatechin]
- Kd (ZIKV NS2B/NS3pro [2]): 0.02 µM
- IC50 (WNV NS2B/NS3pro [3]): 17.3 ± 2.5 µM
- Inhibition Mode (WNV NS2B/NS3pro [3]): Competitive
- IC50 (ZIKV NS2B/NS3pro [4]): 8.9 ± 1.2 µM
- Inhibition Mode (ZIKV NS2B/NS3pro [4]): Competitive
- Trp emission band after titration of the molecule (excitation shift) (ZIKV NS2B/NS3pro [5]): no excitation shift
- IC50 (DENV2 NS2B/NS3pro [6]): 145 ± 3 µM
- Inhibition Mode (DENV2 NS2B/NS3pro [6]): Competitive
- Kd (WNV NS2B/NS3pro [7]): 0.22 µM
- IC50 (YFV NS2B/NS3pro [8]): 19 ± 1.9 µM
- Inhibition Mode (YFV NS2B/NS3pro [8]): Competitive
- Kd (DENV2 NS2B/NS3pro [9]): 0.03 µM
- Trp emission band after titration of the molecule (excitation shift) (DENV2 NS2B/NS3pro [10]): no excitation shift
- Kd (YFV NS2B/NS3pro [11]): 0.27 µM
- Trp emission band after titration of the molecule (excitation shift) (YFV NS2B/NS3pro [12]): no excitation shift

SMILES: O=C(O[C@@H]1Cc2c(O)cc(O)cc2O[C@@H]1c1cc(O)c(O)c(O)c1)c1cc(O)c(O)c(O)c1 [EGCG, Epigallocatechin gallate]
- Kd (ZIKV NS2B/NS3pro [2]): 0.09 µM
- Inhibition Mode (WNV NS2B/NS3pro [3]): Noncompetitive
- IC50 (ZIKV NS2B/NS3pro [4]): 4.5 ± 0.6 µM
- Inhibition Mode (ZIKV NS2B/NS3pro [4]): Noncompetitive
- IC50 (DENV2 NS2B/NS3pro [6]): 6.3 ± 1 µM
- Inhibition Mode (DENV2 NS2B/NS3pro [6]): Noncompetitive
- IC50 (YFV NS2B/NS3pro [8]): 8 ± 1.4 µM
- Inhibition Mode (YFV NS2B/NS3pro [8]): Noncompetitive
- Kd (DENV2 NS2B/NS3pro [9]): 0.07 µM
- Kd (YFV NS2B/NS3pro [11]): 0.06 µM
